Experimental data as given in patent US20250319107A1, “USE OF CANNABIDIOL AND CLOBAZAM IN THE TREATMENT OF CHILDHOOD-ONSET EPILEPSY SYNDROMES” (GW Research Limited, priority 2021, published 2025).

Tests used:
[1] = test system: patients with TSC; assay: Phase 3 randomized controlled trial of CBD versus placebo, adverse reactions in TSC patients; format: in vivo, human; settings: for Alanine aminotransferase increased, adverse reaction incidence / Anaemia, adverse reaction incidence / Aspartate aminotransferase increased, adverse reaction incidence / Decreased appetite, adverse reaction incidence / Diarrhoea, adverse reaction incidence / Eosinophil count increased, adverse reaction incidence / Fatigue, adverse reaction incidence / Gamma glutamyl transferase increased, adverse reaction incidence / Nausea, adverse reaction incidence / Pneumonia (grouped terms), adverse reaction incidence / Pyrexia, adverse reaction incidence / Rash, adverse reaction incidence / Somnolence, adverse reaction incidence / Urinary tract infection, adverse reaction incidence / Vomiting, adverse reaction incidence / Weight decreased, adverse reaction incidence / Subjects with pneumonia, %: TSC; for Alanine aminotransferase increased, adverse reaction incidence / Anaemia, adverse reaction incidence / Aspartate aminotransferase increased, adverse reaction incidence / Decreased appetite, adverse reaction incidence / Diarrhoea, adverse reaction incidence / Eosinophil count increased, adverse reaction incidence / Fatigue, adverse reaction incidence / Gamma glutamyl transferase increased, adverse reaction incidence / Nausea, adverse reaction incidence / Pneumonia (grouped terms), adverse reaction incidence / Pyrexia, adverse reaction incidence / Rash, adverse reaction incidence / Somnolence, adverse reaction incidence / Urinary tract infection, adverse reaction incidence / Vomiting, adverse reaction incidence / Weight decreased, adverse reaction incidence: 12-week treatment
Description: (§1) Randomized, double-blind, parallel-group, trials of CBD versus placebo were undertaken and the adverse event experienced by the patients were collated and investigated.
(§2) In summary patients completed a 1-week screening period and a 4-week baseline period before they were randomized to receive CBD or equivalent volumes of placebo. Randomization was stratified by age.
(§3) Patients began a 4-week dose escalation period, titrating up to their assigned dose, before continuing on a stable dose of blinded investigational medicinal product (IMP) for 12 or 14 weeks.
(§4) Dose escalation for each patient was subject to the investigator's assessment of safety and tolerability. If a dose became poorly tolerated, the investigator may consider temporarily or permanently reducing the dose for the remainder of the study.
(§5) Clinic visits occurred for screening (Day-35), baseline (Day-28), randomization (Day 1) and, on Days 15 and 29 during titration and on Days 43, 57, 71 (telephone) and 85 until the end of treatment (Day 113). Safety telephone calls were completed every two days during titration, one week after the end of titration and, for patients not entering the open label extension (OLE), weekly from Visit 10 to Visit 12.
(§6) Safety and tolerability measures that were recorded included: adverse events; clinical laboratory parameters; 12-lead electrocardiogram (ECG); physical examination parameters (including height and weight); vital signs; Columbia-Suicide Severity Rating Scale (C-SSRS; 19+ years) or C-SSRS Children's (6-18 years) score, where applicable; number of inpatient hospitalizations due to epilepsy; abuse liability and effects on menstruation cycles (in females).
Table 1.12 below lists the adverse reactions that were reported in TSC patients treated with CBD during the 12-week treatment period in the Phase 3 controlled trial.

[2] = test system: institutionalized adult patients; settings: 200 mg/day of pure CBD; twelve institutionalized adult patients; open label; cited from earlier work
[3] = test system: healthy adults and patients with LGS, DS, and TSC; assay: Controlled studies, serum creatinine; format: in vivo, human
Description: CBD can cause elevations in serum creatinine. The mechanism has not yet been determined. In controlled studies in healthy adults and in patients with LGS, DS, and TSC, an increase in serum creatinine of approximately 10% was observed within 2 weeks of starting CBD-OS. The increase was reversible in healthy adults. Reversibility was not assessed in studies in LGS, DS, or TSC.

[4] = test system: adult patients; settings: 200 mg/day of pure CBD; four adult patients; cited from earlier work
[5] = test system: adult patients with generalized epilepsy; settings: eight adult patients with generalized epilepsy; cited from earlier work
[6] = test system: patients with LGS, DS, or TSC; assay: Double-blind placebo-controlled trials across LGS, DS and TSC, overall statements; format: in vivo, human
Description: as §1, §2, §3, §6

[7] = test system: patients with LGS or DS; assay: Phase 3 randomized controlled trials of CBD versus placebo, adverse reactions in DS and LGS patients; format: in vivo, human; settings: for Abnormal behavior, adverse reaction incidence / Aggression, adverse reaction incidence / Agitation, adverse reaction incidence / Alanine aminotransferase increased, adverse reaction incidence / Aspartate aminotransferase increased, adverse reaction incidence / Decreased appetite, adverse reaction incidence / Diarrhea, adverse reaction incidence / Drooling, adverse reaction incidence / Fatigue, adverse reaction incidence / Gamma-glutamyl transferase increased, adverse reaction incidence / Insomnia, adverse reaction incidence / Irritability, adverse reaction incidence / Lethargy, adverse reaction incidence / Liver function test increased, adverse reaction incidence / Pneumonia (grouped terms), adverse reaction incidence / Pyrexia, adverse reaction incidence / Rash, adverse reaction incidence / Somnolence (grouped: somnolence, sedation), adverse reaction incidence / Weight decreased, adverse reaction incidence: DS and LGS, 14-week treatment; for Subjects with pneumonia, %: LGS and DS; for Pneumonia incidence: controlled trials
Description: as §1, §2, §3, §4, §5, §6
Table 1.1 below lists the adverse reactions that were reported in DS and LGS patients treated with CBD during the 14-week treatment period in the Phase 3 controlled trials.

[8] = test system: mice; settings: after administration of pro-convulsant drugs or an electric current; cited from earlier work
[9] = 50 mg/kg/day group (N = 73; one-third did not reach 50 mg/kg/day)
[10] = All active (n = 456, includes 10 patients at 5 mg/kg/day)

C=C(C)[C@@H]1CCC(C)=C[C@H]1c1c(O)cc(CCCCC)cc1O [CBD, cannabidiol]
Alanine aminotransferase increased, adverse reaction incidence ([1]; 25 mg/kg/day (N = 75)): 12% | Anaemia, adverse reaction incidence ([1]; 25 mg/kg/day (N = 75)): 7% | Aspartate aminotransferase increased, adverse reaction incidence ([1]; 25 mg/kg/day (N = 75)): 11% | Decreased appetite, adverse reaction incidence ([1]; 25 mg/kg/day (N = 75)): 20% | Diarrhoea, adverse reaction incidence ([1]; 25 mg/kg/day (N = 75)): 31% | Eosinophil count increased, adverse reaction incidence ([1]; 25 mg/kg/day (N = 75)): 5% | Fatigue, adverse reaction incidence ([1]; 25 mg/kg/day (N = 75)): 5% | Gamma glutamyl transferase increased, adverse reaction incidence ([1]; 25 mg/kg/day (N = 75)): 16% | Nausea, adverse reaction incidence ([1]; 25 mg/kg/day (N = 75)): 9% | Pneumonia (grouped terms), adverse reaction incidence ([1]; 25 mg/kg/day (N = 75)): 4% | Pyrexia, adverse reaction incidence ([1]; 25 mg/kg/day (N = 75)): 19% | Rash, adverse reaction incidence ([1]; 25 mg/kg/day (N = 75)): 7% | Somnolence, adverse reaction incidence ([1]; 25 mg/kg/day (N = 75)): 13% | Urinary tract infection, adverse reaction incidence ([1]; 25 mg/kg/day (N = 75)): 5% | Vomiting, adverse reaction incidence ([1]; 25 mg/kg/day (N = 75)): 17% | Weight decreased, adverse reaction incidence ([1]; 25 mg/kg/day (N = 75)): 7% | Patients who developed a new laboratory-defined anaemia during the study ([1]; 25 mg/kg/day, patients with TSC, normal haemoglobin at baseline, later below lower limit of normal): 38% | Alanine aminotransferase increased, adverse reaction incidence [1, 9]: 22% | Anaemia, adverse reaction incidence [1, 9]: 4% | Aspartate aminotransferase increased, adverse reaction incidence [1, 9]: 19% | Decreased appetite, adverse reaction incidence [1, 9]: 23% | Diarrhoea, adverse reaction incidence [1, 9]: 56% | Eosinophil count increased, adverse reaction incidence [1, 9]: 1% | Fatigue, adverse reaction incidence [1, 9]: 6% | Gamma glutamyl transferase increased, adverse reaction incidence [1, 9]: 14% | Nausea, adverse reaction incidence [1, 9]: 3% | Pneumonia (grouped terms), adverse reaction incidence [1, 9]: 3% | Pyrexia, adverse reaction incidence [1, 9]: 16% | Rash, adverse reaction incidence [1, 9]: 12% | Somnolence, adverse reaction incidence [1, 9]: 26% | Urinary tract infection, adverse reaction incidence [1, 9]: 1% | Vomiting, adverse reaction incidence [1, 9]: 18% | Weight decreased, adverse reaction incidence [1, 9]: 8% | Subjects with pneumonia, % ([1]; With CLB, 25 mg/kg/day, N1 = 18): 16.7% | Subjects with pneumonia, % ([1]; With CLB, 50 mg/kg/day, N1 = 20): 5.0% | Subjects with pneumonia, % ([1]; Without CLB, 50 mg/kg/day, N2 = 53): 1.9% | Discontinuation for transaminase elevation ([1]; controlled trial in TSC): dose responsive | Pneumonia incidence ([1]; with concomitant clobazam, 25 mg/kg/day, patients with TSC): 17% | Pneumonia incidence ([1]; without clobazam, 25 mg/kg/day, patients with TSC): 0% | Control of seizures [2]: ineffective | Reversibility of the serum creatinine increase ([3]; healthy adults): reversible | Increase in serum creatinine ([3]; within 2 weeks of starting CBD-OS, healthy adults and patients with LGS, DS, and TSC): approximately 10% | Patients who became seizure free [4]: two of the four | Number of patients with a marked reduction of seizures [5]: 4 | Seizure frequency versus placebo ([6]; CBD alone or in combination with clobazam, across all treatment groups): significant reduction | Decrease in weight ([6]; patients with LGS, DS, or TSC): dose related | Incidence of pneumonia in patients concurrently taking clobazam in addition to CBD ([6]; versus patients not taking clobazam, LGS, DS and TSC): significantly higher | Abnormal behavior, adverse reaction incidence ([7]; 10 mg/kg/day (n = 139)): 0% | Aggression, adverse reaction incidence ([7]; 10 mg/kg/day (n = 139)): 2% | Agitation, adverse reaction incidence ([7]; 10 mg/kg/day (n = 139)): 0% | Alanine aminotransferase increased, adverse reaction incidence ([7]; 10 mg/kg/day (n = 139)): 4% | Aspartate aminotransferase increased, adverse reaction incidence ([7]; 10 mg/kg/day (n = 139)): 4% | Decreased appetite, adverse reaction incidence ([7]; 10 mg/kg/day (n = 139)): 17% | Diarrhea, adverse reaction incidence ([7]; 10 mg/kg/day (n = 139)): 13% | Drooling, adverse reaction incidence ([7]; 10 mg/kg/day (n = 139)): 0% | Fatigue, adverse reaction incidence ([7]; 10 mg/kg/day (n = 139)): 7% | Gamma-glutamyl transferase increased, adverse reaction incidence ([7]; 10 mg/kg/day (n = 139)): 4% | Insomnia, adverse reaction incidence ([7]; 10 mg/kg/day (n = 139)): 4% | Irritability, adverse reaction incidence ([7]; 10 mg/kg/day (n = 139)): 7% | Lethargy, adverse reaction incidence ([7]; 10 mg/kg/day (n = 139)): 3% | Liver function test increased, adverse reaction incidence ([7]; 10 mg/kg/day (n = 139)): 0% | Pneumonia (grouped terms), adverse reaction incidence ([7]; 10 mg/kg/day (n = 139)): 9% | Pyrexia, adverse reaction incidence ([7]; 10 mg/kg/day (n = 139)): 17% | Rash, adverse reaction incidence ([7]; 10 mg/kg/day (n = 139)): 2% | Somnolence (grouped: somnolence, sedation), adverse reaction incidence ([7]; 10 mg/kg/day (n = 139)): 26% | Weight decreased, adverse reaction incidence ([7]; 10 mg/kg/day (n = 139)): 1% | Abnormal behavior, adverse reaction incidence ([7]; 20 mg/kg/day (n = 307)): 3% | Aggression, adverse reaction incidence ([7]; 20 mg/kg/day (n = 307)): 5% | Agitation, adverse reaction incidence ([7]; 20 mg/kg/day (n = 307)): 1% | Alanine aminotransferase increased, adverse reaction incidence ([7]; 20 mg/kg/day (n = 307)): 7% | Aspartate aminotransferase increased, adverse reaction incidence ([7]; 20 mg/kg/day (n = 307)): 7% | Decreased appetite, adverse reaction incidence ([7]; 20 mg/kg/day (n = 307)): 24% | Diarrhea, adverse reaction incidence ([7]; 20 mg/kg/day (n = 307)): 21% | Drooling, adverse reaction incidence ([7]; 20 mg/kg/day (n = 307)): 3% | Fatigue, adverse reaction incidence ([7]; 20 mg/kg/day (n = 307)): 13% | Gamma-glutamyl transferase increased, adverse reaction incidence ([7]; 20 mg/kg/day (n = 307)): 5% | Insomnia, adverse reaction incidence ([7]; 20 mg/kg/day (n = 307)): 3% | Irritability, adverse reaction incidence ([7]; 20 mg/kg/day (n = 307)): 5% | Lethargy, adverse reaction incidence ([7]; 20 mg/kg/day (n = 307)): 6% | Liver function test increased, adverse reaction incidence ([7]; 20 mg/kg/day (n = 307)): 3% | Pneumonia (grouped terms), adverse reaction incidence ([7]; 20 mg/kg/day (n = 307)): 5% | Pyrexia, adverse reaction incidence ([7]; 20 mg/kg/day (n = 307)): 15% | Rash, adverse reaction incidence ([7]; 20 mg/kg/day (n = 307)): 5% | Somnolence (grouped: somnolence, sedation), adverse reaction incidence ([7]; 20 mg/kg/day (n = 307)): 29% | Weight decreased, adverse reaction incidence ([7]; 20 mg/kg/day (n = 307)): 4% | Abnormal behavior, adverse reaction incidence [7, 10]: 2% | Aggression, adverse reaction incidence [7, 10]: 4% | Agitation, adverse reaction incidence [7, 10]: 1% | Alanine aminotransferase increased, adverse reaction incidence [7, 10]: 6% | Aspartate aminotransferase increased, adverse reaction incidence [7, 10]: 6% | Decreased appetite, adverse reaction incidence [7, 10]: 21% | Diarrhea, adverse reaction incidence [7, 10]: 18% | Drooling, adverse reaction incidence [7, 10]: 2% | Fatigue, adverse reaction incidence [7, 10]: 11% | Gamma-glutamyl transferase increased, adverse reaction incidence [7, 10]: 4% | Insomnia, adverse reaction incidence [7, 10]: 3% | Irritability, adverse reaction incidence [7, 10]: 6% | Lethargy, adverse reaction incidence [7, 10]: 5% | Liver function test increased, adverse reaction incidence [7, 10]: 2% | Pneumonia (grouped terms), adverse reaction incidence [7, 10]: 6% | Pyrexia, adverse reaction incidence [7, 10]: 16% | Rash, adverse reaction incidence [7, 10]: 4% | Somnolence (grouped: somnolence, sedation), adverse reaction incidence [7, 10]: 29% | Weight decreased, adverse reaction incidence [7, 10]: 3% | Subjects with pneumonia, % ([7]; With CLB, 10 mg/kg/day, N1 = 85): 14.1% | Subjects with pneumonia, % ([7]; With CLB, 20 mg/kg/day, N1 = 167): 7.2% | Subjects with pneumonia, % ([7]; Without CLB, 20 mg/kg/day, N2 = 140): 2.9% | Patients who developed a new laboratory-defined anaemia during the study ([7]; patients with LGS and DS, normal haemoglobin at baseline, later below lower limit of normal): 27% | Discontinuation incidence for transaminase elevation ([7]; patients with LGS or DS): dose responsive | Pneumonia incidence ([7]; with clobazam, 10 mg/kg/day CBD): 14% | Pneumonia incidence ([7]; with clobazam, 20 mg/kg/day CBD): 7% | Pneumonia incidence ([7]; without concomitant clobazam, 10 mg/kg/day CBD): 0% | Pneumonia incidence ([7]; without concomitant clobazam, 20 mg/kg/day CBD): 3% | Prevention of seizures [8]: able to prevent seizures
